Where “and” joins values, the source holds several entries; their conditions need not be identical. Equal entries are not always repeated.
What was measured:
[1] = tested on: COX-2 protein expression in LPS-induced RAW 264.7 cells; assay: Western blot, COX-2 protein expression; assay type: cell-based, mouse; settings: 15 µM, LPS 1 µg/mL, p < .001
Description: The cells were collected and washed three times with ice-cold PBS. The cells were treated with a cell lysis buffer [50 mM Tris (pH 7.6), 150 mM NaCl, 5 mM EDTA (pH 8.0), 0.6% NP-40, 1 mM Na3VO4, 20 mM β-glycerophosphate, 1 mM phenylmethylsulfonyl fluoride, 2 mM p-nitrophenyl phosphate, and 1:25 Complete Mini Protease Inhibitor cocktail (Boehringer, Mannheim,Germany)] and kept on ice for 30 min. The cell lysates were centrifuged (12,000 g at 4 °C) for 5 min to obtain a cytosolic fraction. The protein concentration was determined by BCA protein assay kit (Beyotime, Haimen, China). Aliquots of the lysates were separated on 10% sodium dodecyl sulphate (SDS)-polyacrylamide gel electrophoresis (PAGE) and then electro blotted onto a polyvinylidene difluoride (PVDF) membrane. The blots were blocked with 5% (w/v) non-fat dry milk for 2 h at 37 °C, followed by incubation with specific primary antibody at 4 °C overnight. Blots were washed with Tween 20/Tris-buffered saline [TTBS, 20 mM Tris–HCl buffer, pH 7.6, containing 137 mM NaCl and 0.05% (vol/vol) Tween 20] and incubated with a peroxidase-conjugated secondary antibody for 1 h. Blots were again washed with TTBS and the immune active proteins were detected using ECL plus (Thermo, USA). […] Results are expressed as the relative ratio of the specific band compared with the internal reference.

[2] = tested on: phosphorylation of JNK in RAW 264.7 cells; assay: Western blot, LPS-induced phosphorylation of JNK; assay type: cell-based, mouse
Description: RAW 264.7 cells (5 × 10^5 cells/well) plated onto 6-well plates were incubated for 24 h and treated with 7.5, 15.0 or 30.0 µM of compound 6p for 30 min and then stimulated with […] of LPS for 24 h. The cells were collected and washed three times with ice-cold PBS. The cells were treated with a cell lysis buffer [50 mM Tris (pH 7.6), 150 mM NaCl, 5 mM EDTA (pH 8.0), 0.6% NP-40, 1 mM Na3VO4, 20 mM β-glycerophosphate, 1 mM phenylmethylsulfonyl fluoride, 2 mM p-nitrophenyl phosphate, and 1:25 Complete Mini Protease Inhibitor cocktail (Boehringer, Mannheim,Germany)] and kept on ice for 30 min. The cell lysates were centrifuged (12,000 g at 4 °C) for 5 min to obtain a cytosolic fraction. The protein concentration was determined by BCA protein assay kit (Beyotime, Haimen, China). Aliquots of the lysates were separated on 10% sodium dodecyl sulphate (SDS)-polyacrylamide gel electrophoresis (PAGE) and then electro blotted onto a polyvinylidene difluoride (PVDF) membrane. The blots were blocked with 5% (w/v) non-fat dry milk for 2 h at 37 °C, followed by incubation with specific primary antibody at 4 °C overnight. […] Blots were again washed with TTBS and the immune active proteins were detected using ECL plus (Thermo, USA). […] Results are expressed as the relative ratio of the specific band compared with the internal reference.

[3] = tested on: carrageenan-induced paw oedema; assay: Carrageenan-induced paw oedema model; assay type: in vivo, rats; settings: 25 mg/kg p.o., n = 4
Source text: The animal procedures were in strict accordance with the National Institutes of Healthy Guidelines for the Care and Use of Laboratory Animals (NIH Publication No. 85-23, revised 1996) and were approved by the Institutional Animal Care and Utilisation Committee of Yanbian University. Male albino rats weighing 280–300 gwere obtained from Animal Department of Yanbian University . They were kept in the animal house under standard condition of light and temperature with free access to food and water. The animals were randomly divided into five groups (control, D1, 6p, ibuprofen and celecoxib group) The groups with D1, 6p, ibuprofen and celecoxib were administered oral administration (p.o.) 25 mg/kg in a vehicle of 0.5% methylcellulose, respectively. The negative control group was treated with the same vehicle (0.5% methylcellulose). A solution of carrageenan (0.1 ml, 1.0% w/v in 0.9% of normal saline) was injected into the subplanter region of the left hind paw under light ether anaesthesia 1 h after oral administration (p.o.) of the test compound (at a dose level of 25 mg/kg body weight). The paw volume was measured at hourly interval for 5 h (0, 1, 3 and 5 h) and the percent inhibition of oedema was calculated using formula: %Inhibition=(Vt−Vo)control−(Vt−Vo)tested compound /(Vt−Vo)control×100 where, • Vo = volume of oedema at zero time interval. • Vt = volume of oedema at specific time interval.

[4] = tested on: gastric mucosa (stomach lesions); assay: Ulcerogenic effect; assay type: in vivo; settings: 25 mg/kg p.o. once a day for three days, rats
Description: The lead compound D1 and the newly synthesised compound 6p were subjected to in vivo testing to measure their ulcerogenic effect in comparison to celecoxib and ibuprofen. Male albino rats (220–250 g) divided into 5 groups (control, D1, 6p, ibuprofen and celecoxib group) of five rats each. The groups with D1, 6p, ibuprofen, and celecoxib were administered oral administration (p.o.) 25 mg/kg in a vehicle of 0.5% methylcellulose, respectively. The negative control group was treated with the same vehicle (0.5% methylcellulose). All groups were orally administered once a day for three consecutive days. Animals were sacrificed by diethyl ether 6 h after the last dose and the stomach was removed. An opening at the greater curvature was made and the stomach was cleaned by washing with cold saline and inspected with a three-time magnifying lens for any evidence of hyperaemia, haemorrhage, definite haemorrhagic erosion, or ulcer. An arbitrary scale was used to calculate the ulcer index which indicates the severity of the stomach lesions The % ulceration for each group was calculated as follows: % Ulceration = Number of animals bearing ulcer in a group/Total number of animals in the same group ×100.

## COc1cc(Cn2c(=O)c3nnc(C(N)=O)n3c3ccccc32)cc(OC)c1OC [6p, 5-(3,4,5-trimethoxybenzyl)-4-oxo-4,5-dihydro-[1,2, 4]triazolo[4,3-a]quinoxaline-1-carboxamide]
[1]
  inhibition of COX-2 protein expression: 53.44%
[2]; 30 µM, p < .001
  phosphorylation of JNK: markedly diminished
[2]; 7.5, 15 and 30 µM
  LPS-induced phosphorylation of JNK, concentration dependence: concentration-dependent manner
[3]; 1 h
  % of oedema inhibition (% mean ± SD): 37.01 ± 8.45%
[3]; 3 h, 25 mg/kg
  % of oedema inhibition (% mean ± SD): 50.83% and 50.83 ± 3.47%
[3]; 5 h
  % of oedema inhibition (% mean ± SD): 38.24 ± 6.04%
[4]
  % ulceration: 20%
other
  melting point: 286 to 288 °C

From publication PMC6853232, “Discovery and evaluation of novel synthetic 5-alkyl-4-oxo-4,5-dihydro-[1,2,4]triazolo[4,3-a]quinoxaline-1-carbox-amide derivatives as anti-inflammatory agents” (Journal of Enzyme Inhibition and Medicinal Chemistry, 2019)
